pIC50: −log10 of the molar value.
Legend:
[1] = tested on: chloroquine-sensitive P. falciparum (NF54); experiment: Antimalarial activity in vitro, [3H]hypoxanthine incorporation; type: cell-based; conditions: Plasmodium falciparum, NF54, Table I; NF54 strain; read-out: IC50
[2] = tested on: 60 cell line panel; type: cell-based
[3] = tested on: CCRF-CEM; experiment: NCI 60 cell line panel screen (SRB); type: cell-based, human
[4] = tested on: HL-60(TB); experiment: NCI 60 cell line panel screen (SRB); type: cell-based, human
[5] = tested on: K-562; experiment: NCI 60 cell line panel screen (SRB); type: cell-based, human
[6] = tested on: MOLT-4
How it was run: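 Sulforhodamine B staining of TCA-fixed cellular protein was the read-out, following 48 h compound exposure at 37 °C. Plates were pre-incubated 24 h before dosing, and five concentrations (routinely 10^−4 to 10^−8 molar) were tested in duplicate with time-zero and untreated controls. Values derive from test/control percentage growth relative to time-zero mass.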

[7] = tested on: A549/ATCC; experiment: NCI 60 cell line panel screen (SRB); type: cell-based, human
[8] = tested on: HOP-92; experiment: NCI 60 cell line panel screen (SRB); type: cell-based, human
[9] = tested on: NCI-H460; experiment: NCI 60 cell line panel screen (SRB); type: cell-based, human
[10] = tested on: HCT-15; experiment: NCI 60 cell line panel screen (SRB); type: cell-based, human
[11] = tested on: KM12; experiment: NCI 60 cell line panel screen (SRB); type: cell-based, human
[12] = tested on: UACC-257; experiment: NCI 60 cell line panel screen (SRB); type: cell-based, human
[13] = tested on: OVCAR-3; experiment: NCI 60 cell line panel screen (SRB); type: cell-based, human
[14] = tested on: ACHN; experiment: NCI 60 cell line panel screen (SRB); type: cell-based, human
[15] = tested on: PC-3; experiment: NCI 60 cell line panel screen (SRB); type: cell-based, human
[16] = tested on: MCF7; experiment: NCI 60 cell line panel screen (SRB); type: cell-based, human
[17] = tested on: HS 578T; experiment: NCI 60 cell line panel screen (SRB); type: cell-based, human
[18] = mean value over the 60 cell line panel

For `C[C@@H]1CC[C@H]2[C@@H](C)C(CC(O)(COC(=O)CCC(=O)O)CC3OC4O[C@]5(C)CC[C@H]6[C@H](C)CC[C@@H]([C@H]3C)C46OO5)OC3O[C@]4(C)CCC1C32OO4` (stereo partly drawn) [Compound 9, tertiary alcohol primary succinate ester], the pIC50 [1] was 8.52, the “Log10GI50 Delta” value [2] was 1.28 and the “Log10GI50 Range” value [2] was 3.94. The “Log10LC50 Delta” value ([2]; 60 cell line panel) was 0.29, the “Log10LC50 Range” value ([2]; 60 cell line panel) was 0.30 and the “Log10TGI50 Delta” value ([2]; 60 cell line panel) was 3.58. The “Log10TGI50 Range” value ([2]; 60 cell line panel) was 4.00, the “growth inhibition in words” value ([2]; colon cancer KM12, ovarian cancer OVCAR 3, breast cancer MDA-MB-435) was “selectively and strong inhibitory” and the “Log10GI50 MG MID” value ([2]; mean over panel) was −7.02. For the same molecule, the “Log10LC50 MG MID” value [2, 18] was −4.31 log10M, the “Log10TGI50 MG MID” value [2, 18] was −4.72 log10M and the Log10LC50 ([3]; CCRF-CEM (Leukemia), LC50: PG=−50) was greater than −4.30 log10M. For the same molecule, the Log10TGI50 ([3]; CCRF-CEM (Leukemia), TGI: PG=0) was greater than −4.30 log10M, the Log10GI50 ([3]; Leukemia, CCRF-CEM) was less than −8.30 and the Log10LC50 ([4]; HL-60(TB) (Leukemia), LC50: PG=−50) was greater than −4.30 log10M. The Log10GI50 ([4]; Leukemia, HL-60(TB)) was less than −8.30, the Log10LC50 ([5]; K-562 (Leukemia), LC50: PG=−50) was greater than −4.30 log10M and the Log10TGI50 ([5]; K-562 (Leukemia), TGI: PG=0) was greater than −4.30 log10M. For the same molecule, the Log10GI50 ([5]; Leukemia, K-562) was −8.30, the Log10GI50 ([6]; Leukemia, MOLT-4) was −5.15 and the Log10LC50 ([6]; MOLT-4 (Leukemia), LC50: PG=−50) was greater than −4.30 log10M. The Log10TGI50 ([6]; MOLT-4 (Leukemia), TGI: PG=0) was greater than −4.30 log10M, the “drug concentration for primary growth inhibition (percentage growth +50)” value ([6]; MOLT-4, from dose response curves FIGS. 7a-7i) was < 10^−5 molar and the “concentration for cytotoxicity (percentage growth −50)” value ([6]; human, 48 h) was “greater than 10^−4 M”. For the same molecule, the Log10LC50 ([7]; A549/ATCC (Non-Small Cell Lung Cancer), LC50: PG=−50) was greater than −4.30 log10M, the Log10TGI50 ([7]; A549/ATCC (Non-Small Cell Lung Cancer), TGI: PG=0) was greater than −4.30 log10M and the Log10GI50 ([7]; Non-Small Cell Lung Cancer, A549/ATCC) was −4.86. It also gave a Log10LC50 ([8]; HOP-92 (Non-Small Cell Lung Cancer), LC50: PG=−50) greater than −4.30 log10M, a Log10TGI50 ([8]; HOP-92 (Non-Small Cell Lung Cancer), TGI: PG=0) greater than −4.30 log10M and a Log10GI50 ([8]; Non-Small Cell Lung Cancer, HOP-92) of less than −8.30. It also gave a Log10LC50 ([9]; NCI-H460 (Non-Small Cell Lung Cancer), LC50: PG=−50) greater than −4.30 log10M, a Log10TGI50 ([9]; NCI-H460 (Non-Small Cell Lung Cancer), TGI: PG=0) greater than −4.30 log10M and a Log10GI50 ([9]; Non-Small Cell Lung Cancer, NCI-H460) of less than −8.30. The Log10GI50 ([10]; Colon Cancer, HCT-15) was less than −8.30, the Log10LC50 ([10]; HCT-15 (Colon Cancer), LC50: PG=−50) was greater than −4.30 log10M and the Log10TGI50 ([10]; HCT-15 (Colon Cancer), TGI: PG=0) was −5.01 log10M. For the same molecule, the Log10GI50 ([11]; Colon Cancer, KM12) was less than −8.30, the Log10LC50 ([11]; KM12 (Colon Cancer), LC50: PG=−50) was −4.36 log10M and the Log10TGI50 ([11]; KM12 (Colon Cancer), TGI: PG=0) was less than −8.30 log10M. The Log10GI50 ([12]; Melanoma, UACC-257) was −4.89, the Log10LC50 ([12]; UACC-257 (Melanoma), LC50: PG=−50) was greater than −4.30 log10M and the Log10TGI50 ([12]; UACC-257 (Melanoma), TGI: PG=0) was greater than −4.30 log10M. It also gave a Log10LC50 ([13]; OVCAR-3 (Ovarian Cancer), LC50: PG=−50) greater than −4.30 log10M, a Log10TGI50 ([13]; OVCAR-3 (Ovarian Cancer), TGI: PG=0) of less than −8.30 log10M and a Log10GI50 ([13]; Ovarian Cancer, OVCAR-3) of less than −8.30. For the same molecule, the Log10LC50 ([14]; ACHN (Renal Cancer), LC50: PG=−50) was greater than −4.30 log10M, the Log10TGI50 ([14]; ACHN (Renal Cancer), TGI: PG=0) was −4.74 log10M and the Log10GI50 ([14]; Renal Cancer, ACHN) was −6.67. For the same molecule, the Log10LC50 ([15]; PC-3 (Prostate Cancer), LC50: PG=−50) was greater than −4.30 log10M, the Log10TGI50 ([15]; PC-3 (Prostate Cancer), TGI: PG=0) was greater than −4.30 log10M and the Log10GI50 ([15]; Prostate Cancer, PC-3) was less than −8.30. It also gave a Log10GI50 ([16]; Breast Cancer, MCF7) of less than −8.30, a Log10LC50 ([16]; MCF7 (Breast Cancer), LC50: PG=−50) greater than −4.30 log10M and a Log10TGI50 ([16]; MCF7 (Breast Cancer), TGI: PG=0) greater than −4.30 log10M. For the same molecule, the Log10GI50 ([17]; Breast Cancer, HS 578T) was −4.36, the Log10LC50 ([17]; HS 578T (Breast Cancer), LC50: PG=−50) was greater than −4.30 log10M and the Log10TGI50 ([17]; HS 578T (Breast Cancer), TGI: PG=0) was greater than −4.30 log10M.
